Data from patent publication US12350708B2, “Molecular coatings and methods of making and using the same” (Glisten LLC, priority 2019, dated 2025).

Experiment: water contact angle testing of diamond surfaces
Format: physicochemical
Conditions: diamond surface, Example 11, FIGS. 20A-20D; uncoated diamond approximately 65°
Source text: In some embodiments, water contact angle goniometry can be used to probe the surface properties and performance of the functionalized gemstones (e.g., of the diamond surface, of the surface after the anchor molecule is bound, and/or of the surface after the host molecule is bound forming an inclusion complex). In some embodiments, comparisons of water contact angle can be employed to analytically determine the specific coverage of adsorbed species pertaining to the anchor and to the host/guest complex. In some embodiments, water contact angle can be used to determine the durability of the gemstone coating by performing measurements at various stages of time after normal use after the host/guest inclusion complexes are formed. […]
(§1) Self-assembly of the β-cyclodextrin is analyzed with water contact angle. Angles will decrease according to the quantity of cyclodextrin residing on the substrate. The change in the refractive index of the surface after molecular coating is determined using optical ellipsometry. […]
as §1

contact angle: 61 °
Compound: OC[C@H]1O[C@@H]2O[C@H]3[C@H](O)[C@@H](O)[C@@H](O[C@H]4[C@H](O)[C@@H](O)[C@@H](O[C@H]5[C@H](O)[C@@H](O)[C@@H](O[C@H]6[C@H](O)[C@@H](O)[C@@H](O[C@H]7[C@H](O)[C@@H](O)[C@@H](O[C@H]8[C@H](O)[C@@H](O)[C@@H](O[C@H]1[C@H](O)[C@H]2O)O[C@@H]8CO)O[C@@H]7CO)O[C@@H]6CO)O[C@@H]5CO)O[C@@H]4CO)O[C@@H]3CO [b-cyclodextrin, β-cyclodextrin]
